For test [1], the system named is Mycobacterium sp. with deposit number of CGMCC No.21272. As to the kind of experiment: antibiotic susceptibility experiment. Format: cell-based. Particulars: strain CGMCC No.21272 (YT).
Test [2] concerns Mycobacterium sp. with deposit number of CGMCC No.21273. As to the kind of experiment: antibiotic susceptibility experiment. In kind it is cell-based. Particulars: strain CGMCC No.21273 (JD).

Take `O=C1CN(/N=C/c2ccc([N+](=O)[O-])o2)C(=O)N1` [Furantoin]: the Susceptibility degree entry in test [1] and in test [2] was “R” each time.

With Cotrimoxazole, the Susceptibility degree result in test [1] and in test [2] was “S” in each case.

Take Penicillin: the Susceptibility degree entry in test [1] and in test [2] was “R” in each case.

Consider Romifloxacin, for which the Susceptibility degree entry in test [1] and in test [2] was “S” in each case.

The record behind these values is patent EP4578939A1, “MYC[…]. BASED ON VARIOUS CARBON-NITROGEN METABOLIC […], METHOD FOR ISOLATING SAME, AND USE THEREOF” (Peng, Guanghao, priority 2022, dated 2024).
